Test results as given in US20060116451A1, “Stabilization of antioxidants” (priority 2004, published 2006).

Experiment: Residual antioxidant activity (ABTS^+) upon exposure to UV-irradiated TiO2
Format: physicochemical
Conditions: FIG. 6
Protocol: Exposure of enzymes to UV-irradiated TiO2: Enzyme (0.8 mg protein/mL, total 10 mL in 25 mM phosphate buffer, pH 7.5) was placed in an open scintillation vial. TiO2 fine powder (0.25 mg/mL) was added to the protein solution and the suspension was stirred gently at room temperature (25° C.) with a magnetic stir bar placed inside the vial. The enzyme-TiO2 suspension was placed under a […] UV lamp (model No. B-100AP, UVP, San Gabriel, Calif.). The distance between the UV lamp and the vial was 18 cm. At this distance, the UV irradiance at 365 nm (λmax) was 8 mW/cm^2 (determined using a […]® UV meter (Model No. J-221). It was also verified that there was no thermal denaturation of the enzyme during irradiation and the temperature of the enzyme-TiO2 suspension remained constant (25±2° C.) throughout. Exposure of antioxidants to UV-irradiated TiO2: Trolox (0.01 mg/mL) was dissolved in 10 mL phosphate buffer (25 mM, pH 7.5). TiO2 (0.25 mg/mL) was added to the Trolox solution. The suspension was stirred and irradiated with UV as described above. At 30 min intervals, 1 mL aliquots were removed from the irradiating suspension and filtered through a 0.2 μm filter. […] Determination of residual antioxidant activity: Antioxidant activities of modified enzymes and the modifiers were measured according to the following modification of the assay reported by Re et al. Re, […].; Yang, M.; Rice-Evans, C. […]

With `Cc1c(C)c2c(c(C)c1O)CCC(C)(C(=O)O)O2` (stereo not shown) [Trolox, 6-hydroxy-2,5,7,8-tetramethylchroman-2-carboxylic acid] the “loss of free radical absorbing activity during the first hour of photooxidation (TiO2-UV)” value was 80%.
